Patent US11116817B2, “Antimicrobial agents and compositions comprising the same” (THE CURATORS OF THE UNIVERSITY OF MISSOURI, priority 2017, dated 2021)
Positions of bridges follow the written chain, without caps; N, C: chain ends. Non-standard residues stand in square brackets, D forms with d. No end group written: not given here. Abu = CC[C@H](N)C(=O)O

Experiments:
[1] = test system: CHO-K1 cells; assay: Cell cytotoxicity assay (MTT); format: cell-based, hamster
Description: The Cell Cytotoxicity Assay includes the following procedures. Mouse immature dendritic cell line, JAWSII (ATCC CRL-11904™), was cultured in Alpha minimum essential medium with ribonucleosides, deoxyribonucleosides, 4 mM L-glutamine, 1 mM sodium pyruvate, and 5 ng/ml murine Granulocyte macrophage colony-stimulating factor (GM-CSF) then supplemented with 20% FBS, 100 U/ml penicillin, and 100 μg/ml streptomycin at 37° C. in humidified air with 5% CO2. CCR-2 transfected CHO-K1 cells were cultured in RPMI-1640 supplemented with 10% FBS, 2 mM L-glutamine, 100 units/ml penicillin and streptomycin, and 500 μg/ml G418 at 37° C. in humidified air with 5% CO2. The cytotoxicity of CAMPs (SEQ ID NOs: 1, 2, 3, and 4) to JASWII and CHO-K1 cells was determined using MTT (3-(4,5-dimethylthiazol-2-yl)-2,5-diphenyltetrazolium bromide, Thermo Fisher Scientific) cell proliferation assay. Cells (5×10^3 cells/well) in 96-well microtiter plates were treated with peptides at 64, 128, 256, and 512 μg/ml for 4, 12, 24, and 48 hours at 37° C. After treatment, 20 μl of 12 mM MTT solution was added to each well and the plate was incubated for 4 hours. The medium in each well was replaced with 100 μl of dimethyl sulfoxide (DMSO, Sigma-Aldrich) to dissolve MTT crystals. The plates were read using a spectrophotometer at 540 nm. The viability of treated cells was expressed as the percentage of viability relative to the untreated control. The experiment was performed in triplicate.
Chicken macrophage cell lines MQ-NCSU and HD11 were maintained in RPMI-1640 media supplemented with 10% fetal bovine serum (FBS), 2% chicken serum, 100 U/ml penicillin and 100 μg/ml streptomycin (Sigma-Aldrich) at 37° C. in humidified air with 5% CO2. CHO-K1 cells were cultured in the same media without 2% chicken serum. For CCR2-transfected CHO-K1 cells, medium was supplemented with 500 μg/ml G418 was added (Sigma-Aldrich). Murine immature dendritic cell line JAWSII (ATCC CRL-11904™) was cultured in Alpha minimum essential medium containing 4 mM L-glutamine, 1 mM sodium pyruvate, 5 ng/ml murine Granulocyte macrophage colony-stimulating factor (GM-CSF), 20% FBS, 100 U/ml penicillin and 100 μg/ml streptomycin at 37° C. in humidified air with 5% CO2. The cell cytotoxicity was determined using the MTT (3-(4,5-dimethylthiazol-2-yl)-2,5-diphenyltetrazolium bromide cell proliferation assay according to the manufacturer's instruction (Thermo Fisher Scientific). Briefly, cells (5×10^3 cells/well) were seeded in 96-well tissue culture plates, incubated overnight and treated with the analogues at concentrations of 4, 16, 64 and 256 μg/ml for 4, 12, 24 and 48 hours at 37° C. After treatment, […] 12 mM MTT solution was added to each well. The plate was incubated for 4 hours and read at 540 nm. Viability was expressed as percentage of viable cells relative to the untreated control. The experiments were performed in triplicate.

[2] = test system: mouse red blood cells; format: cell-based
Description: The Hemolytic Assay includes the following procedures. Briefly, mouse red blood cells (RBCs, Innovative research, Novi, Mich.) were washed three times with phosphate-buffered saline (PBS, pH 7.4), centrifuged at 1000×g for 10 minutes, and re-suspended in PBS to 10% (v/v). The RBCs were treated with CAMPs (SEQ ID NOs: 1, 2, 3, and 4) at various concentrations ranging from 4 to 512 μg/ml (2-fold serial dilutions) at 37° C. for 1 hours. PBS and 0.2% Triton X-100 were used as negative and positive controls, respectively. The supernatant was transferred to a 96-well flat-bottomed polystyrene plate (Thermo Fisher Scientific), and the amount of hemoglobin released into the supernatant was determined by measuring the absorbance with a spectrophotometer at 540 nm. Hemolytic activity was expressed as the percentage of hemolysis and calculated using the following equation: hemolysis (%)=(As−A0)/(A100−A0)×100, where As is the absorbance of the sample, A100 is the absorbance of completely lysed RBCs in 0.2% Triton X-100, and A0 is the absorbance in the complete absence of hemolysis (PBS treatment). The assay was performed in triplicate. Therapeutic index (T.I.) was calculated according to a previously published formula: T.I.=MHC/MICGM. MHC was the minimum hemolytic concentration that caused 5% hemolysis of mouse RBCs. The MICGM was the minimum inhibitory concentration of the peptide concentrations against bacterial growth after the geometric mean was calculated. MICG− was the MICGM for Gram-negative bacteria; MICG+ was the MICGM for Gram-positive bacteria.

[3] = test system: JAWSII cells; assay: Chemotaxis assay (48-well microchemotaxis chamber); format: cell-based, mouse; settings: for chemotactic index (C.I.): peptide 64 μg/ml
Description: (§1) Migration of JAWSII and CCR-2 transfected CHO-K1 cells in response to CAMPs (SEQ ID NOs: 1, 2, 3, and 4) was determined using a 48-well microchemotaxis chamber technique as previously described. Chemotaxis buffer (Minimum Essential Medium containing 0.1% BSA, 100 U/ml penicillin, and 100 μg/ml streptomycin) and bacterial peptide N-Formyl-methionyl-leucyl-phenylalanine (fMLF, Sigma-Aldrich) were included as negative and positive controls, respectively. The results were presented as chemotactic index (C.I.)=number of migrated cells induced by CAMPs (SEQ ID NOs: 1, 2, 3, and 4)/number of migrated cells induced by chemotactic buffer. The assay was repeated five times.
as §1, with “CCR2-CHO-K1” for “CCR-2 transfected CHO-K1”, “the analogues” for “CAMPs (SEQ ID NOs: 1, 2, 3, and 4)”, “For JAWSII cells, chemotaxis” for “Chemotaxis”, “(C.I.). C.I.=number” for “(C.I.)=number”, “the analogues/number” for “CAMPs (SEQ ID NOs: 1, 2, 3, and 4)/number”

[4] = test system: P. aeruginosa (ATCC 27853); format: cell-based; settings: low salt condition (5 mM NaCl)
Description: (§2) The minimum inhibitory concentrations (MIC) of AvBDs (SEQ ID NOs: 5, 6, 7, 8, 9, 10, 11, 12, and 13) were determined under low salt and standard conditions according to the guidelines of the Clinical and Laboratory Standards Institute (CLSI). […] An equal volume […] of bacterial suspension was added to each well of the plate. The final bacterial concentration in the wells was 5×10^5 CFU/ml. […] To complement MIC-1s assays, the minimum bactericidal concentrations (MBC) were evaluated by sub-culturing the contents of the first two clear wells obtained in the MIC-1s assay onto LB agar plates. All assays were conducted in triplicate. The lowest peptide concentration inhibiting about, at least, or more than 99% of bacterial growth was defined as MBC-1s. The analogues were regarded as bactericidal when the MBC was determined to be no more than four times the MIC.

[5] = test system: S. aureus (ATCC 29213); format: cell-based; settings: standard conditions, CLSI guidelines
Description: as §2

[6] = test system: E. coli, S. Typhimurium, P. aeruginosa and S. aureus; assay: Antimicrobial activity assay (colony counting), Example Two, statements over all four bacteria; format: cell-based; settings: for impact of NaCl on the killing activity: NaCl 5 to 150 mM; for killing activity compared with parent peptide: 2 to 128 μg/ml, 37° C., 2 hours
Description: (§3) Escherichia coli (ATCC 25922), Pseudomonas aeruginosa (ATCC 27853), Salmonella enteric serovar Typhimurium (ATCC 14028) and Staphylococcus aureus (ATCC 29213) were used to assess the antimicrobial activity of AvBD analogues (SEQ ID NOs: 5, 6, 7, 8, 9, 10, 11, 12, and 13). All bacterial strains were grown on Luria-Bertani (LB) agar plates or Trypticase Soy Agar with 5% Sheep Blood (TSA, Thermo Fisher Scientific) plates at 37° C. Antimicrobial activity was determined by a colony counting assay. In brief, bacteria were suspended in 100-fold diluted Mueller Hinton broth with 5 mM NaCl (minimal growth medium) to obtain a final bacterial concentration of 2×10^5 CFU/ml. Twenty-five microliters of bacterial suspension and 25 μl of AvBD analogue (SEQ ID NOs: 5, 6, 7, 8, 9, 10, 11, 12, and 13) solution were mixed in the wells of a 96-well polypropylene microtiter plate (Nunc™, Thermo Fisher Scientific). The final peptide concentrations were 2, 4, 8, 16, 32, 64 and 128 μg/ml. The minimal growth medium without AvBD peptide (SEQ ID NO: 5, 6, 7, 8, 9, 10, 11, 12, and 13) was included as a negative control. The bacterial-peptide mixtures were incubated at 37° C. for 2 hours, 10-fold serially diluted and plated on LB agar plates. The numbers of bacterial colonies were enumerated after 16 hours of incubation at 37° C. Antimicrobial activity was expressed as percent of killing using the following formula: (CPUcontrol−CFUtreated)/CFUcontrol×100%. To assess the resistance of AvBD analogues (SEQ ID NOs: 5, 6, 7, 8, 9, 10, 11, 12, and 13) to sodium chloride (NaCl), antimicrobial assays were carried out in the presence of 5 mM, 50 mM, 100 mM or 150 mM NaCl. All assays were performed in triplicate.

[7] = test system: Salmonella enteric serovar Typhimurium (ATCC 14028); assay: Antimicrobial activity assay (colony counting), Example Two; format: cell-based, S. Typhimurium; settings: 2 to 128 μg/ml, 37° C., 2 hours
Description: as §3, with “The numbers of bacterial colonies were enumerated after 16 hours of incubation at 37° C.” left out, “To assess the resistance of AvBD analogues (SEQ ID NOs: 5, 6, 7, 8, 9, 10, 11, 12, and 13) to sodium chloride (NaCl), antimicrobial assays were carried out in the presence of 5 mM, 50 mM, 100 mM or 150 mM NaCl. All assays were performed in triplicate.” left out

[8] = test system: CCR-2 transfected CHO-K1 cells; assay: Chemotaxis assay (48-well microchemotaxis chamber); format: cell-based, hamster
Description: as §1
as §1, with “CCR2-CHO-K1” for “CCR-2 transfected CHO-K1”, “the analogues” for “CAMPs (SEQ ID NOs: 1, 2, 3, and 4)”, “For JAWSII cells, chemotaxis” for “Chemotaxis”, “(C.I.). C.I.=number” for “(C.I.)=number”, “the analogues/number” for “CAMPs (SEQ ID NOs: 1, 2, 3, and 4)/number”

[9] = 64, 128, 256, and 512 μg/ml for 4 to 48 hours

Substance	T.I. of G+ (therapeutic index, MHC/MICGM) [2]	T.I. of G− (therapeutic index, MHC/MICGM) [2]	MBS-Is [4]	impact of NaCl on the killing activity [6]	chemotactic activity [8]	also measured
Ac-LRRLKPLIRPWLRPLRRWWW-NH2 [CAMP-A]	6.54±2.01	8.72±2.41	–	–	–	effect on cell viability ([1]; concentration at about 128 μg/ml or greater): somewhat decreased
Ac-PIHRRIPPRWPRLKRRW-NH2 [CAMP-t2, PIHRRIPPRWPRLKRRW]	>13.45 ± 4.48	>5.45 ± 2.54	–	–	–	effect on cell viability [1, 9]: did not significantly affect cell viability
Ac-RKFLRRRGEVAHFSQKSLGLYCWWW-NH2 [CAMP-t1]	>3.27 ± 2.41	>4.36 ± 1.21	–	–	–	effect on cell viability [1, 9]: did not significantly affect cell viability
Ac-RRRWRKRRWWW-NH2 [CAMP-B, RRRWRKRRWWW]	> 12.36±4.18	> 10.90±4.0	–	–	–	effect on cell viability [1, 9]: did not significantly affect cell viability
GPDSCNHDRGLCRVGNCNPGEYLAKYCFEPVILCCKPLSPTPTKT (disulfide 5-34, 12-27, 17-35) [AvBD-12, reference compound]	–	–	>256 µg/mL	–	–	chemotactic index (C.I.) [3]: 6.62; MIC [5]: >256^ μg/ml
GPDS[Abu]NHDRGLCRVGNCNPGEYLAKYCFEPVIL[Abu]CKPLSPTPTKT (disulfide 12-27, 17-35) [AvBD-12A4]	–	–	>256 µg/mL	some impact on killing activity due to salt	–	killing activity compared with AvBD-12 [7]: somewhat reduced
GPDS[Abu]NHDRGL[Abu]RVGNCNPGEYLAKY[Abu]FEPVIL[Abu]CKPLSPTPTKT (disulfide 17-35) [AvBD-12A5]	–	–	>256 µg/mL	some impact on killing activity due to salt	did not appear to exhibit chemotactic activity	chemotactic activity [3]: did not appear to exhibit chemotactic activity
GPDS[Abu]NHDRGL[Abu]RVGN[Abu]NPGEYLAKY[Abu]FEPVIL[Abu][Abu]KPLSPTPTKT [AvBD-12A6]	–	–	>256 µg/mL	some impact on killing activity due to salt	did not appear to exhibit chemotactic activity	chemotactic activity [3]: did not appear to exhibit chemotactic activity
GPHSANHVRGLARVGNANPGLYLAKYAFIPVILAAKPLSPTPTKT [AvBD-12A1]	–	–	256 µg/mL	some impact from NaCl	mild or little chemotactic activity	killing activity compared with parent peptide [6]: more effective than the parent peptide AvBD-12
GPRSANHKRGLARVGNANPGKYLAKYSFRPVILSSKPLSPTPTKT [AvBD-12A3]	–	–	–	–	–	effect on cell viability ([1]; 4, 16, 64, 256 μg/ml for 4, 12, 24, and 48 hour): did not appear to have any effect on cell viability
GPRSSNHKRGLSRVGNSNPGKYLAKYAFRPVILAAKPLSPTPTKT [AvBD-12A2]	–	–	32 µg/mL	less adverse impact	mild or little chemotactic activity	chemotactic index (C.I.) [3]: 2.37; killing activity compared with parent peptide [6]: more effective than the parent peptide AvBD-12
